Test results taken from PMC11215771 (Journal of Medicinal Chemistry, 2024).
Where “and” joins values, the source holds several entries; their conditions need not be identical. Equal entries are not always repeated.

Key:
[1] = target: T1, wild-type hBACE1 in CHO-K1 cells (Homo sapiens, UniProt P56817); assay: Single molecule TIRF microscopy and bleaching step analysis in CHO-K1 cells; format: cell-based; settings: 200 nM probe, fixed CHO-K1, TIRF, after rolling background subtraction
T1 construct: expressed in transfected cells; host or cells: CHO-K1
Protocol: Due to the high photostability and quantum yield of the Alexa dyes, the C3-compounds are potential tools for single molecule fluorescence microscopy of BACE1. […] CHO-K1 cells were transfected with wild-type BACE1. […] The samples were then recorded using total internal reflection fluorescence (TIRF) microscopy. […] Prior to analysis, ImageJ rolling background subtraction was applied[45] (Figure 6A, right panel). […] Single particles were identified and time traces of fluorescence intensity were extracted using GMimPro[46] (Figure 6B). The time traces were then subjected to a bleaching-step analysis with quickPBSA[47] (Figure 6B). […] The msfGFP was reported previously to display a fluorescence probability of about 50%, defined as combined probability of fluorescence, detection in the specific imaging system and identification in the analysis of a BACE1 molecule.[48] […] Here, the best fits indicated also a fluorescence probability of about 60%, but with a considerably lower fit error compared to dimers only (Figure 6D, blue traces).
The panel in the middle depicts typical single molecule complexes 48 h after transfection with 50 ng wild type BACE1. […] The insets highlight single fluorescence spots at higher magnification. […] (B) Single fluorescence spots were located and fluorescence intensities over time were extracted (see methods). […]

[2] = target: T2, recombinant BACE1 extracellular domain (Homo sapiens, UniProt P56817); assay: FRET-based BACE1 inhibition (BACE1-activity FRET) assay; format: biochemical
T2 construct: purchased Thermo Fisher Scientific P2985
Protocol: In addition, we performed a fluorescence resonance energy transfer (FRET)-based BACE1 inhibition assay using the recombinant BACE1 extracellular domain and a BACE1 substrate coupled to a donor fluorophore, which is unquenched […] to the activity of BACE1. […] (Figure 1F).
Protease activity was determined using a FRET-based assay with recombinant BACE1 protein (Thermo Fisher Scientific; P2985). BACE1 inhibition was determined in end-points assays according to the manufacturer’s protocol except using a reduced volume of 12 μL in 384-well plates (Greiner, 788896). […] Fluorescence intensities were quantified with an infinite 200pro reader (Tecan) using top-reading mode. Data points were approximated using a logistic fit to determine half-inhibitory concentrations (pIC50).

[3] = Fluorescence spectroscopy, sensitivity to BSA and Expi293F cells
Protocol: Emission and excitation spectra of all compounds were determined at a concentration of 33 nM in phosphate buffered saline (PBS) using an infinite 200pro (Tecan) with a resolution of 2 nm. […] For sensitivity assessment, we used PBS, PBS + BSA (0.05%), and Expi293F cells in fluorobrite (2 × 10^6 cells/mL).

[4] = target: T3, hBACE1 D289N (proteolytic inactive mutant) in HEK293T cells (Homo sapiens, UniProt P56817, D289N); assay: Staining of transfected HEK293T cells, confocal imaging: BACE1 D289N; format: cell-based
T3 construct: expressed in transfected cells; host or cells: HEK293T
Protocol: (§1) Next, we explored the performance of the new Alexa-C3 compounds in living cells. Because of the rather hydrophilic properties, we exclusively targeted the cell membrane. To prevent intracellular accumulation, we first performed stainings at 4 °C arresting ATP-dependent endocytosis. […] All of the constructs were tagged at the C-terminus with either EGFP or mCherry to visualize subcellular expression. […] With these experiments, we want to exclude that a lack of staining is caused by an impaired accessibility of the protein by Alexa-C3 compounds. […] We then tested samples with BACE1 expression after fixation of the cells with paraformaldehyde (PFA).
(§2) (D) All conjugates were also probed on cells fixed with 4% paraformaldehyde (PFA) for 15 min prior to staining. […] Scale bars represent 5 μm (A–D) and 20 μm (E). […] Samples were excited at 488, 561, and 633 nm, respectively.
(§3) HEK293T cells (ATCC accession number CRL-11268) were maintained in Dulbecco's modified Eagle's medium (Sigma-Aldrich D6046) with 1g/L glucose, supplemented with 10% FCS (Merck) and 1% penicillin/streptomycin (PAA). CHO-K1 cells (ATCC #CCL-61) were maintained in modified phenol red free RPMI-1640 medium (Sigma-Aldrich, R7509), supplemented with 2 mM L-glutamine (Sigma-Aldrich, G7513), and 10% FCS (Merck). Cells were cultured at 37 °C in a 5% CO2 atmosphere. The following plasmids were used for transfection with the amount of DNA indicated (per 35 mm Petri dish): hBACE1 (NM_012104.4), 50 ng for single molecule recordings, 200 ng otherwise; hBACE1 fused to EGFP or mCherry, 75 ng; hBACE1 D289N fused to EGFP or mCherry, 75 ng; hBACE1 D289N, 200–400 ng; hBACE2 (NM_012105.3) fused to EGFP, 75 ng; hCathepsinD (HsCD00438327), Harvard PlasmID, 75 ng. Transfection was performed 24 h after plating using jetPEI (Polyplus) according to the manufacturer’s protocol.
For labeling, we plated HEK293T cells onto sterile 18 mm 1.5H borosilicate coverslips (VWR), coated with poly-D-lysine (Sigma). […]

[5] = FCS of free Alexa-C3 in HBS in the absence of BACE1; settings: 100 nM in HBS, pH 5, no BACE1, mean ± SD
[6] = target: recombinant human BACE1 protein (amino acids 1–457, extracellular domain) (Homo sapiens, UniProt P56817); assay: Fluorescence correlation spectroscopy (FCS) with BACE1 ECD in solution
[7] = target: T4, hBACE1 fused to EGFP or mCherry in HEK293T cells (Homo sapiens, UniProt P56817); assay: Staining of transfected HEK293T cells, confocal imaging: BACE1; format: cell-based; settings: living HEK293T, preincubation with 2 μM C3
T4 construct: expressed in transfected cells; host or cells: HEK293T
Protocol: as §1, §2, §3
For labeling, we plated HEK293T cells onto sterile 18 mm 1.5H borosilicate coverslips (VWR), coated with poly-D-lysine (Sigma). […] In addition, some cells were also fixed with 4% PFA or permeabilized with HBS + 50 μg/mL of Saponin for 15 min prior to staining as stated in the figure legend. After staining, live cells were washed with HBS twice. Confocal imaging was conducted at room temperature in HBS using the 63× objective and the pinhole set to 1 AU. Confocal imaging was performed 24 h after transfection.

[8] = target: BACE-1 (mouse Protein, recombinant) (Mus musculus, UniProt P56818); assay: Nanotemper (Monolith NT.115) binding analysis; settings: for binding of free acid dyes to recombinant BACE1: 0.1 nM dye, BACE1 0.3–5000 nM
Protocol: For binding analysis, the Monolith NT.115 (Nanotemper) was used. BACE-1 (mouse Protein, recombinant, life technologies, 50002-M08H-250, LCL10JA2204)) was dissolved in 50 mM HEPES/100 mM NaCl, pH 5 to a concentration of 20 μM. […] Samples were loaded on standard capillaries (Nanotemper, MO-K022) and measured in triplicate at 22 °C, using 1%/60% LED power for Alexa488/Alexa568 and 10% MST power. Fluorescence was plotted against protein concentrations.

BACE1 = settings: cited from earlier work
[9] = BACE1 concentration 0.305 (unit not given; 0.3–5000 nM), triplicate
[10] = BACE1 concentration 0.61, triplicate
[11] = BACE1 concentration 1.221, triplicate
[12] = BACE1 concentration 2.441, triplicate
[13] = BACE1 concentration 4.883, triplicate
[14] = BACE1 concentration 9.766, triplicate
[15] = BACE1 concentration 19.531, triplicate
[16] = BACE1 concentration 39.062, triplicate
[17] = BACE1 concentration 78.125, triplicate
[18] = BACE1 concentration 156.25, triplicate
[19] = BACE1 concentration 312.5, triplicate
[20] = BACE1 concentration 625, triplicate
[21] = BACE1 concentration 1250, triplicate
[22] = BACE1 concentration 2500, triplicate
[23] = BACE1 concentration 5000, triplicate

Sequence of BACE-1 (mouse Protein, recombinant) (P56818 46-457 limits assumed): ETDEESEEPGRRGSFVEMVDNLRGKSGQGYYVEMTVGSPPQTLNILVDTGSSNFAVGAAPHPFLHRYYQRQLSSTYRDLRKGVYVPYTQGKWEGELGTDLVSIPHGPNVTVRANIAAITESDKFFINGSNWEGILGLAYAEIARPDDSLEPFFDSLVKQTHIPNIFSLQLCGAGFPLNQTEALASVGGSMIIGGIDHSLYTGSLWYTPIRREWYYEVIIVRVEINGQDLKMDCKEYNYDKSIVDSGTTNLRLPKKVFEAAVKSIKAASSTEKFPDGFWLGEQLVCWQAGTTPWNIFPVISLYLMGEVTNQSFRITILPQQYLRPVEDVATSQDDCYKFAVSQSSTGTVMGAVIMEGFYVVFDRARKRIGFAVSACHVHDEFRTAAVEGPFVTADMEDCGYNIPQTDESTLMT
Sequence of recombinant human BACE1 protein (amino acids 1–457, extracellular domain) (P56817 22-457): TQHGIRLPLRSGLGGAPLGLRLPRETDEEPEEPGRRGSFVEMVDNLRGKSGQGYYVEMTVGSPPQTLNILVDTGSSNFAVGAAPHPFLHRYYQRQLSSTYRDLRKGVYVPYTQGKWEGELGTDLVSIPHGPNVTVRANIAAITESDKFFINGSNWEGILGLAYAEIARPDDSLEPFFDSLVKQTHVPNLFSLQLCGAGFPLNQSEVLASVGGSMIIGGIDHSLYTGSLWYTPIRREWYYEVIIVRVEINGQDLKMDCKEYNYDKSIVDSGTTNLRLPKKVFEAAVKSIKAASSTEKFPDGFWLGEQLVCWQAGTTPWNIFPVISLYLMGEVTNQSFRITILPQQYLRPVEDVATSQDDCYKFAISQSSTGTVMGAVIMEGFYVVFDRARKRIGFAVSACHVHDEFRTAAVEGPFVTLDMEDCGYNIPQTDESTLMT
T2 sequence (P56817 46-457 limits assumed): as the sequence (P56818 46-457 limits assumed) above, with S6P, I162V, I165L, T180S, A182V, V340I, A393L counted along it
T4 sequence (P56817 46-501): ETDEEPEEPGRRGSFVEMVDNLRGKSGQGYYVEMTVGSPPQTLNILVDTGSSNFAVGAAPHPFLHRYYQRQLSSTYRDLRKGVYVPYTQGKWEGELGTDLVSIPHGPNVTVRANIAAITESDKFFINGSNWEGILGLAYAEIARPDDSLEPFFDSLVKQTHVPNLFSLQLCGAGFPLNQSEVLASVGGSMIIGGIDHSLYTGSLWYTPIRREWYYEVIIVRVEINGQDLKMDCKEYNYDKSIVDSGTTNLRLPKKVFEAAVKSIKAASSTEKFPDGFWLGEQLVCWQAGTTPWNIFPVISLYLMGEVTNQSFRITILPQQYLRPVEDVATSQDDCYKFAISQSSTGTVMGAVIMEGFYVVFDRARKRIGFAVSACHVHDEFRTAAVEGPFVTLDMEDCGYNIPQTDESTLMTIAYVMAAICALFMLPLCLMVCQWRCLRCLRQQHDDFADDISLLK
T1 sequence (P56817 46-501): as above
T3 sequence (P56817 46-501 D289N): as the sequence (P56817 46-501) above, with D244N counted along it

fluorescence reading, single replicates [8, 9]	fluorescence reading, single replicates [8, 10]	fluorescence reading, single replicates [8, 11]	fluorescence reading, single replicates [8, 12]	fluorescence reading, single replicates [8, 13]	fluorescence reading, single replicates [8, 14]	fluorescence reading, single replicates [8, 15]	fluorescence reading, single replicates [8, 16]	fluorescence reading, single replicates [8, 17]	fluorescence reading, single replicates [8, 18]	fluorescence reading, single replicates [8, 19]	fluorescence reading, single replicates [8, 20]	fluorescence reading, single replicates [8, 21]	fluorescence reading, single replicates [8, 22]	fluorescence reading, single replicates [8, 23]	Structure (SMILES)	binding of free acid dyes to recombinant BACE1 [8]	also measured
–	–	–	–	–	–	–	–	–	–	–	–	–	–	–	C[C@@H](NC(=O)c1cc(C(=O)N[C@@H](Cc2ccccc2)[C@H](O)CNC2CC2)cc(N(C)S(=O)(=O)CCCNC(=O)c2ccc(C(=O)O)c(C3=c4cc5c(cc4Oc4cc6c(cc43)C(CS(=O)(=O)O)=CC(C)(C)N6)=NC(C)(C)C=C5CS(=O)(=O)O)c2)c1)c1ccccc1	–	signal-to-background ratio [1]: 5.9; increase of potency of the pIC50 in a cell-free assay vs parent C3 ([2]; compared with unconjugated C3): 10 fold; IC50 ([2]; logistic fit, n = 3 for each compound, read-out: pIC50 (negative logarithm of the half-inhibitory concentration) (converted)): 2.45 nM; increase of fluorescent output in PBS supplemented with BSA ([3]; PBS + BSA (0.05%) vs PBS alone): +228%; increase of fluorescent output in presence of Expi293F cells ([3]; mock Expi293F cells in fluorobrite vs PBS alone): +302%; staining of BACE1 D289N [4]: no appreciable fluorescence; diffusion time constant of free probe [5]: 49 ± 2 μs; EC50 [6]: 45.7 nM; diffusion time constant of the second (BACE1-bound, slow) population ([6]; 100 nM probe with BACE1 ECD, pH 5, mean ± SEM, n = 3 preparations): 300 ± 20 μs; staining of BACE1 after preincubation with unconjugated C3 [7]: no appreciable fluorescence
996.43 and 995.816 and 995.716	995.873 and 995.729 and 996.039	995.788 and 996.299 and 996.353	996.08 and 995.975 and 995.829	996.289 and 995.771 and 996.152	995.856 and 996.198 and 996.218	996.164 and 995.908 and 996.132	996.17 and 996.327 and 995.657	996.076 and 996.3 and 995.686	996.777 and 995.969 and 996.167	996.159 and 995.85 and 996.173	995.972 and 996.54 and 995.887	996.02 and 995.911 and 996.501	996.211 and 996.223 and 996.163	996.477 and 996.486 and 996.65	N=c1ccc2c(-c3cc(C(=O)O)ccc3C(=O)O)c3ccc(N)c(S(=O)(=O)O)c3oc-2c1S(=O)(=O)O [Alexa488]	did not observe any indication for affinity	–
1000.167 and 1000.199 and 1000.049	1000.123 and 1000.132 and 1000.01	1000.102 and 1000.025 and 1000.071	1000.271 and 1000.043 and 1000.008	1000.035 and 1000.075 and 1000.095	999.978 and 999.965 and 1000.148	1000.105 and 1000.065 and 999.949	1000.023 and 999.969 and 1000.096	1000.136 and 1000.189 and 1000.122	1000.014 and 1000.053 and 1000.126	999.991 and 999.997 and 999.948	999.898 and 999.877 and 999.931	999.758 and 999.742 and 999.781	999.645 and 999.707 and 999.65	999.562 and 999.587 and 999.529	CC1(C)C=C(CS(=O)(=O)O)c2cc3c(cc2=N1)Oc1cc2c(cc1C=3c1cc(C(=O)O)ccc1C(=O)O)C(CS(=O)(=O)O)=CC(C)(C)N2 [Alexa568]	did not observe any indication for affinity	–
–	–	–	–	–	–	–	–	–	–	–	–	–	–	–	C[C@@H](NC(=O)c1cc(C(=O)N[C@@H](Cc2ccccc2)[C@H](O)CNC2CC2)cc(N(C)S(C)(=O)=O)c1)c1ccccc1 [C3]	–	IC50 (BACE1): nanomolar range
